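Compound exposure: 48 hours, 5 concentrations, 96-well plates. TGI marks complete inhibition of growth.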
Experiments:
Assay in all cases: NCI-60 cell line screen, 48 h
[1] = system: OVCAR-5 ovarian
[2] = system: HCC-2998 colon
[3] = system: NCI-H522 lung
[4] = system: SF-295 CNS
[5] = system: SNB-75 CNS
[6] = system: RXF 393 renal
[7] = system: T-47D breast
[8] = system: SK-MEL-28 melanoma
[9] = system: HCT-15 colon
[10] = system: PC-3 prostate
[11] = system: CCRF-CEM leukemia
[12] = system: NCI-H23 lung
[13] = system: MOLT-4 leukemia
[14] = system: HS 578T breast
[15] = system: EKVX NSCLC
[16] = system: RPMI-8226 leukemia
[17] = system: COLO 205 colon
[18] = system: SF-539 CNS
[19] = system: HOP-92 NSCLC
[20] = system: HCT-116 colon
[21] = system: SK-OV-3 ovarian
[22] = system: SK-MEL-2 melanoma
[23] = system: KM12 colon
[24] = system: DU-145 prostate
[25] = system: SW-620 colon
[26] = system: OVCAR-3 ovarian
[27] = system: UACC-62 melanoma
[28] = system: HT29 colon
[29] = system: HOP-62 NSCLC
[30] = system: SN12C renal
[31] = system: SR leukemia
[32] = system: M14 melanoma
[33] = system: NCI-H226 lung
[34] = system: MDA-MB-435
[35] = system: MDA-MB-231 breast
[36] = system: NCI/ADR-RES ovarian
[37] = system: MDA-N
[38] = system: OVCAR-8 ovarian
[39] = system: MCF7 breast
[40] = system: MALME-3M melanoma
[41] = system: UACC-257 melanoma
[42] = system: ACHN renal
[43] = system: SNB-19 CNS
[44] = system: K-562 leukemia
[45] = system: 786-0 renal
[46] = system: A549 NSCLC
[47] = system: TK-10 renal
[48] = system: SK-MEL-5 melanoma
[49] = system: SF-268 CNS
[50] = system: LOX IMVI melanoma
[51] = system: CAKI-1 renal
[52] = system: U251 CNS
[53] = system: OVCAR-4 ovarian
[54] = system: IGROV1 ovarian
[55] = system: NCI-H460 lung

Question: With `CC12OC(=O)[C@@]3(O)CCC4C(C[C@H]5O[C@]56CC=CC(=O)[C@]46C)C45OC[C@H]6C(=O)O[C@@H]1C[C@@]6(C)[C@H](C4=O)C23O5` (stereo not given in full) as the compound, how does the TGI [1] read?
Answer: 10.7 µM

Question: What about the TGI [2] of the same compound?
Answer: 10.5 µM

Question: What about the TGI [3] of the same compound?
Answer: 1.77 µM

Question: And the TGI [4]?
Answer: 16.2 µM

Question: What about the TGI [5] of the same compound?
Answer: 20.7 µM

Question: And the TGI [6]?
Answer: 2.43 µM

Question: And the TGI [7]?
Answer: 5.27 µM

Question: And the TGI [8]?
Answer: 2.06 µM

Question: What about the TGI [9] of the same compound?
Answer: 4.43 µM

Question: And the TGI [10]?
Answer: 12.9 µM

Question: What about the TGI [11] of the same compound?
Answer: 1.45 µM

Question: What about the TGI [12] of the same compound?
Answer: 2.18 µM

Question: And the TGI [13]?
Answer: 21.4 µM

Question: And the TGI [14]?
Answer: 68.9 µM

Question: What about the TGI [15] of the same compound?
Answer: 16.6 µM

Question: What about the TGI [16] of the same compound?
Answer: 2.47 µM

Question: What about the TGI [17] of the same compound?
Answer: 1.93 µM

Question: What about the TGI [18] of the same compound?
Answer: 0.923 µM

Question: What about the TGI [19] of the same compound?
Answer: 5.67 µM

Question: What about the TGI [20] of the same compound?
Answer: 4.97 µM

Question: What about the TGI [21] of the same compound?
Answer: 18.6 µM

Question: And the TGI [22]?
Answer: 9.38 µM

Question: And the TGI [23]?
Answer: 3.97 µM

Question: What about the TGI [24] of the same compound?
Answer: 7.77 µM

Question: And the TGI [25]?
Answer: 4.87 µM

Question: And the TGI [26]?
Answer: 2.77 µM

Question: What about the TGI [27] of the same compound?
Answer: 3.46 µM

Question: What about the TGI [28] of the same compound?
Answer: 8.99 µM

Question: And the TGI [29]?
Answer: 10.4 µM

Question: And the TGI [30]?
Answer: 5.39 µM

Question: What about the TGI [31] of the same compound?
Answer: 2.46 µM

Question: What about the TGI [32] of the same compound?
Answer: 4.32 µM

Question: What about the TGI [33] of the same compound?
Answer: 6.98 µM

Question: And the TGI [34]?
Answer: 5.2 µM

Question: What about the TGI [35] of the same compound?
Answer: 2.58 µM

Question: And the TGI [36]?
Answer: > 100 µM

Question: And the TGI [37]?
Answer: 26.1 µM

Question: What about the TGI [38] of the same compound?
Answer: 12.6 µM

Question: And the TGI [39]?
Answer: 3.3 µM

Question: What about the TGI [40] of the same compound?
Answer: 5.72 µM

Question: And the TGI [41]?
Answer: 4.98 µM

Question: And the TGI [42]?
Answer: 8.45 µM

Question: And the TGI [43]?
Answer: 11.8 µM

Question: And the TGI [44]?
Answer: > 100 µM

Question: What about the TGI [45] of the same compound?
Answer: 2.25 µM

Question: And the TGI [46]?
Answer: 13.7 µM

Question: And the TGI [47]?
Answer: 3.97 µM

Question: And the TGI [48]?
Answer: 2.86 µM

Question: What about the TGI [49] of the same compound?
Answer: 1.91 µM

Question: And the TGI [50]?
Answer: 6.92 µM

Question: What about the TGI [51] of the same compound?
Answer: 7.53 µM

Question: What about the TGI [52] of the same compound?
Answer: 5.77 µM

Question: What about the TGI [53] of the same compound?
Answer: 8.27 µM

Question: What about the TGI [54] of the same compound?
Answer: 2.58 µM

Question: What about the TGI [55] of the same compound?
Answer: 8.69 µM
